The text below walks through data of patent US11965159B2, “Compositions and methods for regulating proteins and nucleic acids activities” (THE BROAD INSTITUTE, INC., priority 2019, dated 2024).

Each structure is given as a SMILES string. Entries after “also recorded” stand apart in the source; their conditions may differ.

Common to all, as to assay type: cell-based
One data set concerns HEK293T cells. The data set is described as follows: Cell viability assay (ATP content) of HEK293T cells. To be noted: up to 20 μM, 24 h. As for the experimental part: FIG. 23—Cell viability assay (ATP content) of HEK293T cells in the presence of compounds. Measurement of ATP content of HEK293T cells upon incubating with BRD7087 and BRD5779 (5-20 μM) for 24 h. Error bars represent ±S.D. from technical replicates (n=3).
FIG. 67. Cell viability assay (ATP content) of HEK293T cells in the presence of compounds. Measurement of ATP content of HEK293T cells upon incubating with BRD7087 and BRD5779 (5-20 μM) for 24 h. Error bars represent ±S.D. from technical replicates (n=3).

Another data set concerns dCas9. Put plainly: dCas9-based transcriptional activation of HBG1 gene in HEK293FT cells (RT-qPCR). To be noted: for inhibition of the HBG1 transcriptional activation: 48 hours. Here is the method:
Transcription activation experiments and quantitative RT-PCR analyses. For transcription activation experiments 250,000 cells/well were plated in a 12 well plate. The cells were transiently transfected with a 1:1:1 mass ratio of the dCas9 plasmid, MS2-P65-HSF1 effector plasmid and the sgRNA plasmid targeting the HBG1 gene or an RFP control plasmid. A total of 1.6 μg plasmid DNA was transfected using Lipofectamine™ 2000 (Life Technologies™) according to manufacturer's protocol. Immediately after transfection, the cells were treated with an appropriate dose of the small molecule inhibitors for 48 hours following which the cells were harvested and RNA was extracted using the EZNA® Total RNA kit I (OMEGA) as per manufacturer's instructions. 1 μg total cellular RNA was used to perform reverse transcription using the High-Capacity cDNA Reverse Transcription Kit (Applied Biosystems™) or the qScript® cDNA Synthesis Kit (QUANTABIO). qPCR reactions were performed to quantify RNA expression using the TaqMan™ probes (Life Technologies™ HBG1/HBG2: Hs00361131_g1 and ACTB: Hs01060665_g1) and TaqMan™ Fast Advanced Master Mix (Life Technologies™) in 5 μL multiplexed reactions and 384-well format using the LightCycler® 480 Instrument II (ROCHE). For each sample, six technical replicates were performed. Data were analyzed using the LightCycler® 480 software (ROCHE) by the ΔΔCt method: Ct values for the gene of interest (HBG1) were normalized to Ct values for the housekeeping gene (ACTB) and fold-changes in the expression level of the gene of interest were normalized to RFP-transfected control. The data are reported as mean S.E.M. for technical replicates.
For transcription activation experiments 250,000 cells/well were plated in a 12 well plate. […] Data were analyzed using the LightCycler® 480 software (ROCHE) by the ΔΔCt method: Ct values for the gene of interest (HBG1) were normalized to Ct values for the housekeeping gene (ACTB) and fold-changes in the expression level of the gene of interest were normalized to RFP-transfected control. […]
(In general: In qPCR the cycle at which signal appears reflects the starting amount.)

The subject of data set [1] is CRISPR-Cas9 based immunity in S. aureus RN4220. Put plainly: Bacterial resistance study against phage (CRISPR immunity, OD600 growth curves). To be noted: 5-20 μM, 16 h, MOI 1. As for the experimental part:
Bacterial study. Plasmid pRH248 harboring SpCas9, tracrRNA and a single-spacer array ([…]) (SEQ ID NO:7) targeting phage DNM474 was constructed via BsaI cloning onto pDB114 as described in Heler et al 6. Plate reader growth curves of bacteria infected with phage were conducted as described previously with minor modifications 7. Overnight cultures were diluted 1:100 into 2 ml of fresh BHI supplemented with appropriate antibiotics and 5 mM CaCl2) and grown to an OD600 of ˜0.2. Immune cells carrying pRH248 were diluted with cells lacking CRISPR-Cas in a 1:10,000 ratio. Following a 15-minute pre-incubation with DMSO or with varying amounts of inhibitors (5-20 μM), the cultures were infected with DNM474 at an initial MOI of 1. To produce plate reader growth curves, 200 μL of infected cultures, normalized for OD600, were transferred to a 96-well plate in triplicate. OD600 measurements were collected every 10 minutes for 16 hours. Similarly, growth curves to evaluate the toxicity of the compounds at 20 μM (FIG. 32) were conducted on cultures lacking CRISPR in the absence of phage.
Bacterial study. […] Plate reader growth curves of bacteria infected with phage were conducted as described previously with minor modifications^7. […] To produce plate reader growth curves, 200 μL of infected cultures, normalized for OD600, were transferred to a 96-well plate in triplicate. […]

As for `OC[C@H]1Nc2ccc(-c3cccc(F)c3)cc2[C@H]2[C@@H]1CCN2Cc1ccncc1` [BRD7087, ((3aR,4S,9bR)-8-(3-Fluorophenyl)-1-(pyridin-4-ylmethyl)-2,3,3a,4,5,9b-hexahydro-1H-pyrrolo[3,2-c]quinolin-4-yl)methanol], the “cellular ATP-levels” value with HEK293T cells is “did not significantly alter”. In the data set on dCas9 (10 μM), the “inhibition of transcriptional activation” value was above 60%. Besides, the “inhibition of the HBG1 transcriptional activation” value with dCas9 was “dose-dependent inhibition”. Moreover, in data set [1], the “blockage of CRISPR-Cas9 immunity (sensitization of immune bacteria to phage, OD600)” value is recorded as “dose-dependent blockage of CRISPR-Cas9 based immunity; also recorded: able to sensitize the immune bacterial cells against target phage in a dose-dependent manner; also recorded: higher activity”.
In the case of `COc1ccc(-c2ccc3c(c2)[C@H]2[C@H](CCN2Cc2ccncc2)[C@@H](CO)N3)cc1` [BRD5779, ((3aR,4S,9bR)-8-(4-Methoxyphenyl)-1-(pyridin-4-ylmethyl)-2,3,3a,4,5,9b-hexahydro-1H-pyrrolo[3,2-c]quinolin-4-yl)methanol], the “cellular ATP-levels” value in the data set on HEK293T cells is recorded as “did not significantly alter”. Besides, the “inhibition of the HBG1 transcriptional activation” value with dCas9 is given as “dose-dependent inhibition”. The “blockage of CRISPR-Cas9 immunity (sensitization of immune bacteria to phage, OD600)” value in data set [1] was “dose-dependent blockage of CRISPR-Cas9 based immunity; also recorded: able to sensitize the immune bacterial cells against target phage in a dose-dependent manner”.
